This note sets out measurements from patent publication US20220370440A1 (Lead Discovery Center GmbH, priority 2018, published 2022).

Data set [1] can be described thus: Metabolic stability in mouse liver microsomes without cofactor NADPH. Particulars: for Stability in presence of mouse liver microsomes without cofactor NADPH [% remaining after 50 min]: 3 μM test compound, 37° C., LC-MS/MS. The format is in vitro ADME. An excerpt: There are two major groups of enzyme reactions catalyzed by drug metabolizing enzymes, the so called Phase I and Phase II reactions. The basic processes in phase I reactions are oxidation, reduction and/or hydrolysis mostly catalyzed by the cytochrome P450 (CYP) family of enzymes.
The following procedures describe the determination of the in vitro Phase I metabolic stability of test compounds using liver microsomes by measuring compound depletion over time. Test compound at the concentration of 3 μM was incubated with the liver microsomes from the mouse species and the experiment was performed without NADPH. The depletion of the test compounds was measured over time up to 50 minutes at 37° C. by LC-MS/MS. Different compounds were tested under these conditions for microsomal stability (see Table 5).
In general terms: Liver microsomes are vesicles of endoplasmic reticulum, rich in cytochrome P450 enzymes.

The target in a further data set is T1, HER2 INS YVMA (Homo sapiens, UniProt P04626, INS775YVMA).
T1 construct: purchased DPF
T1 sequence (P04626 with tags, fused parts or gaps INS775YVMA): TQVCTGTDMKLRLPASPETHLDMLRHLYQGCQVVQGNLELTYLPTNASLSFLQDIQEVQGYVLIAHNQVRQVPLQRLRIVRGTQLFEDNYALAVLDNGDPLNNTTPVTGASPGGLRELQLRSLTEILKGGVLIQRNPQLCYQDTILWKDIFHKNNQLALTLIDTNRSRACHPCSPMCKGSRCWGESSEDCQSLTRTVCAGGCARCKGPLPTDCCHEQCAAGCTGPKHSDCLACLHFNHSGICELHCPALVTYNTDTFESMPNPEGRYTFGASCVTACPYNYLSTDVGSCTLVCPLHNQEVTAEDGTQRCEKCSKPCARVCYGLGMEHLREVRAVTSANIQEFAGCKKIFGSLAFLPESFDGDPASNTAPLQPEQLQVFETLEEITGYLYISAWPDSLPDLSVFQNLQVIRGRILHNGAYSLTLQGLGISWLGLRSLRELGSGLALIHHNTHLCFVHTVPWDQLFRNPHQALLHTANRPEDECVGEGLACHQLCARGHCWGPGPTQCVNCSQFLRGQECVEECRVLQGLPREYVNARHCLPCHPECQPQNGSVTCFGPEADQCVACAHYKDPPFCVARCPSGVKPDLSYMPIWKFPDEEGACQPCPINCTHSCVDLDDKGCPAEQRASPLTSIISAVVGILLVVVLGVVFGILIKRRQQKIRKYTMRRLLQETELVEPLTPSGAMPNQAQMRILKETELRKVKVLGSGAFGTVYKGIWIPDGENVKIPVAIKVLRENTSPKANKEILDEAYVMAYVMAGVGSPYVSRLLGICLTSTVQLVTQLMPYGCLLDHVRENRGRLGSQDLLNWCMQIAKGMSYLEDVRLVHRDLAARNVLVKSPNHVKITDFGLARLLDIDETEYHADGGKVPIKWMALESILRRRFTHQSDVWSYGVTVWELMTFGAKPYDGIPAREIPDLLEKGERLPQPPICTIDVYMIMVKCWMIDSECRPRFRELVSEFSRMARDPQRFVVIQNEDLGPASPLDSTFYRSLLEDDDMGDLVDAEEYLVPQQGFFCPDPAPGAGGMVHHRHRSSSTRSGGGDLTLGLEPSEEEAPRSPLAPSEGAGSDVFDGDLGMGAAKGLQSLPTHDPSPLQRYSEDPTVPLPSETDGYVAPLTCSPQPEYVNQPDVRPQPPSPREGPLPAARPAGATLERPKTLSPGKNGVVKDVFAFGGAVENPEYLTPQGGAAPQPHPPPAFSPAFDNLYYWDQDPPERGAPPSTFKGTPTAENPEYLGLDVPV
The data set can be described thus: Lance Kinase Activity Assay, HER2 INS YVMA (Her2 Exon 20 INSYVMA Lance). The format is biochemical. Particulars: biochemical Lance assay. The essentials: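 IC50 was fitted to sigmoidal curves of TR-FRET signal (665 and 615 nm emission after 340 nm excitation) from an Eu anti-phospho antibody binding the phosphorylated ULight peptide. The ATP-started reaction ran 1 h at RT and was then quenched with 10 mM EDTA plus antibody for a further 1 h. Compounds were tested as 8-point, 3-fold dilutions.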

Data set [2] deals with Her2 Exon 20 INSYVMA Ba/F3 (Homo sapiens, UniProt P04626, DUP772-775, cells depend on it). The data set is described as follows: Her2 Exon 20 INSYVMA Ba/F3 CellTiter-Glo. The format is cell-based. Particulars: CellTiter-Glo, 72 h, read-out: Her2 Exon 20 INSYVMA Ba/F3 CTG IC50. The essentials:
(§1)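 IC50 values come from dose–response fits of CellTiter-Glo luminescence in Ba/F3 cells treated with compound for 72 h at 37 °C, 5% CO2. Vehicle (DMSO) and 10 μM staurosporine wells set the assay window, with Z′ ≥0.5 required.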
A general note: In ATP-based viability assays light output follows the ATP content of the culture.

For data set [3], the target named is EGFR Exon 20 INSNPH Ba/F3 (Homo sapiens, UniProt P00533, DUP771-773, cells depend on it). The data set is described as follows: EGFR Exon 20 INSNPH Ba/F3 CellTiter-Glo. The format is cell-based. Particulars: CellTiter-Glo, 72 h, read-out: EGFR Exon 20 INSNPH Ba/F3 CTG IC50. The essentials:
as §1

Another data set deals with EGFR T790ML858R (Homo sapiens, UniProt P00533, L858R/T790M). The data set is described as follows: EGFR T790ML858R Lance assay. The format is biochemical. How it is done: (§2) Inhibition is indicated as […] [nM] (“−”=not measured). Compounds having an activity designated as “A” provided an IC50≤100 nM; compounds having an activity designated as “B” provided an 100 nM<IC50≤500 nM; compounds having an activity designated as “C” provided an 500 nM<IC50≤1000 nM; compounds having an activity designated as “D” provided an 1000 nM<IC50≤100000 nM; and compounds having an activity designated as “E” provided an IC50>10000 nM.
Chain of EGFR T790ML858R (P00533 25-1210 T790M/L858R): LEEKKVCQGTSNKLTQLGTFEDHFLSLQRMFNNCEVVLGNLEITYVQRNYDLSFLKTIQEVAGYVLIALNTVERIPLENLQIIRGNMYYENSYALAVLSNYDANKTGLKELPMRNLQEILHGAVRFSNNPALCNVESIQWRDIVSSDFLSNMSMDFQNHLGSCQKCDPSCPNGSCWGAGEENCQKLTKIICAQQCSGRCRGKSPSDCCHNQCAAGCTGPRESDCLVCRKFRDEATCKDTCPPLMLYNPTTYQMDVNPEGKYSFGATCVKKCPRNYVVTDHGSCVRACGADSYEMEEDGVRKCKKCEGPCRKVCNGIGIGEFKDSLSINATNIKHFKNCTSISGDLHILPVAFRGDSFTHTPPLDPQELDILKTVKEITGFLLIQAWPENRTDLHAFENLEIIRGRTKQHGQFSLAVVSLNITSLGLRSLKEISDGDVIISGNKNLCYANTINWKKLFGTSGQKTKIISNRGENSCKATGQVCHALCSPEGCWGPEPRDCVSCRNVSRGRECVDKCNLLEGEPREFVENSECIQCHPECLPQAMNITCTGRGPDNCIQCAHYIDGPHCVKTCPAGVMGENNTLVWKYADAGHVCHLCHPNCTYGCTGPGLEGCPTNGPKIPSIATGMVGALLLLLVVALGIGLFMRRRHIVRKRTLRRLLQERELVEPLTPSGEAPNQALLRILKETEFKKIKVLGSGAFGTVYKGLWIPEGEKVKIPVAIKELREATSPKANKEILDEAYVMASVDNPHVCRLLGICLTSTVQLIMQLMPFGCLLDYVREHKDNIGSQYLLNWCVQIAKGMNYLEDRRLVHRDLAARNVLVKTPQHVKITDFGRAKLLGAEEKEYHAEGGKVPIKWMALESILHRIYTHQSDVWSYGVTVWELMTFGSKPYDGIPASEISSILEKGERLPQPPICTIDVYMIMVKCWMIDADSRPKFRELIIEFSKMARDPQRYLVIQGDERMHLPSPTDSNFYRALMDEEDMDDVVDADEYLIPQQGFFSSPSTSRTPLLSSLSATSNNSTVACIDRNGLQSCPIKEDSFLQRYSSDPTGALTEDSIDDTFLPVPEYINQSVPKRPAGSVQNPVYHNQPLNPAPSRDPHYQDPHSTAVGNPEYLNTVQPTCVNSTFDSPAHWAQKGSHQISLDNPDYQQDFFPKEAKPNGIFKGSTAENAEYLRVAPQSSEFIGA

In a further data set the target is EGFR wt (Homo sapiens, UniProt P00533). The data set can be described thus: EGFR wt Lance assay. The format is biochemical. How it is done:
as §2

The next data set has as its system H1975. The data set can be described thus: H1975 CellTiter-Glo. Particulars: Homo sapiens, NCI-H1975; 72 h compound incubation; read-out: H1975 CTG IC50. The format is cell-based. The essentials:
(§3)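 Seed cells; incubate 24 h at 37° C., 5% CO2; add compound in DMSO over a concentration range; incubate 72 h; add CellTiter-Glo reagent, stabilise 10 min at room temperature; read luminescence; fit IC50.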

The subject of the next data set is A431. The data set is described as follows: A431 CellTiter-Glo. The format is cell-based. Particulars: Homo sapiens, A-431; 72 h compound incubation; read-out: A431 CTG IC50. The gist of the method:
as §3

Molecules are shown by their SMILES.

Chain of Her2 Exon 20 INSYVMA Ba/F3 (P04626 with tags, fused parts or gaps DUP772-775): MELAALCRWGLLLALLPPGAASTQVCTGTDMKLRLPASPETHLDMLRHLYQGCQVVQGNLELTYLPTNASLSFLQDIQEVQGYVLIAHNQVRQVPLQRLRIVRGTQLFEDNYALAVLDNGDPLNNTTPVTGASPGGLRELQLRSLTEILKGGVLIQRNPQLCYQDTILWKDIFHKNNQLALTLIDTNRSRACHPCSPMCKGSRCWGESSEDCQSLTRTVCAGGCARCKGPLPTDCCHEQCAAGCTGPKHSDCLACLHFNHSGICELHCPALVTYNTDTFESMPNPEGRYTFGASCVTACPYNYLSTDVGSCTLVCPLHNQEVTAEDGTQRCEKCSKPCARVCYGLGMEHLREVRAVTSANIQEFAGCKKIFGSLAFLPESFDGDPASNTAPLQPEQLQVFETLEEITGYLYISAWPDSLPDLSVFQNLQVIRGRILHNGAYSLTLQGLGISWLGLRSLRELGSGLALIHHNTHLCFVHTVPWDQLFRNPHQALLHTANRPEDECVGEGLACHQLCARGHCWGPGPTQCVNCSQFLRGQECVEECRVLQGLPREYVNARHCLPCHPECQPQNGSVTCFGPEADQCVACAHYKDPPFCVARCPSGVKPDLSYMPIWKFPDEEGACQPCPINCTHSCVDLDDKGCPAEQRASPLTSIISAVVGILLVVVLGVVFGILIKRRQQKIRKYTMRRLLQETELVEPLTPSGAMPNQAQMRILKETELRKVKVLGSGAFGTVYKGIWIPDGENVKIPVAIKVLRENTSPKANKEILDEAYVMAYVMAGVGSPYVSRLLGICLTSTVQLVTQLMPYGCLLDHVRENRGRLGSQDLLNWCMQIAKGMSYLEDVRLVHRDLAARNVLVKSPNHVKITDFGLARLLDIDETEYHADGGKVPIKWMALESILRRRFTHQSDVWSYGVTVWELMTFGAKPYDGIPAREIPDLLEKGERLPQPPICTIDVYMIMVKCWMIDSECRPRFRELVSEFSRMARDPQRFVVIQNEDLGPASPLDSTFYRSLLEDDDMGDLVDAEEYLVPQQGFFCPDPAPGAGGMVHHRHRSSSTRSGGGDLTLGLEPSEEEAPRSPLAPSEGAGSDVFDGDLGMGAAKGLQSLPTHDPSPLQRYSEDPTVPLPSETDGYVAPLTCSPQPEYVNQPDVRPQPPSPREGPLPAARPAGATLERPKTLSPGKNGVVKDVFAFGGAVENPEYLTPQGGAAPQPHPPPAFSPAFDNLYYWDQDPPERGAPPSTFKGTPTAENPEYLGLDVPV
Chain of EGFR wt (P00533 25-1210): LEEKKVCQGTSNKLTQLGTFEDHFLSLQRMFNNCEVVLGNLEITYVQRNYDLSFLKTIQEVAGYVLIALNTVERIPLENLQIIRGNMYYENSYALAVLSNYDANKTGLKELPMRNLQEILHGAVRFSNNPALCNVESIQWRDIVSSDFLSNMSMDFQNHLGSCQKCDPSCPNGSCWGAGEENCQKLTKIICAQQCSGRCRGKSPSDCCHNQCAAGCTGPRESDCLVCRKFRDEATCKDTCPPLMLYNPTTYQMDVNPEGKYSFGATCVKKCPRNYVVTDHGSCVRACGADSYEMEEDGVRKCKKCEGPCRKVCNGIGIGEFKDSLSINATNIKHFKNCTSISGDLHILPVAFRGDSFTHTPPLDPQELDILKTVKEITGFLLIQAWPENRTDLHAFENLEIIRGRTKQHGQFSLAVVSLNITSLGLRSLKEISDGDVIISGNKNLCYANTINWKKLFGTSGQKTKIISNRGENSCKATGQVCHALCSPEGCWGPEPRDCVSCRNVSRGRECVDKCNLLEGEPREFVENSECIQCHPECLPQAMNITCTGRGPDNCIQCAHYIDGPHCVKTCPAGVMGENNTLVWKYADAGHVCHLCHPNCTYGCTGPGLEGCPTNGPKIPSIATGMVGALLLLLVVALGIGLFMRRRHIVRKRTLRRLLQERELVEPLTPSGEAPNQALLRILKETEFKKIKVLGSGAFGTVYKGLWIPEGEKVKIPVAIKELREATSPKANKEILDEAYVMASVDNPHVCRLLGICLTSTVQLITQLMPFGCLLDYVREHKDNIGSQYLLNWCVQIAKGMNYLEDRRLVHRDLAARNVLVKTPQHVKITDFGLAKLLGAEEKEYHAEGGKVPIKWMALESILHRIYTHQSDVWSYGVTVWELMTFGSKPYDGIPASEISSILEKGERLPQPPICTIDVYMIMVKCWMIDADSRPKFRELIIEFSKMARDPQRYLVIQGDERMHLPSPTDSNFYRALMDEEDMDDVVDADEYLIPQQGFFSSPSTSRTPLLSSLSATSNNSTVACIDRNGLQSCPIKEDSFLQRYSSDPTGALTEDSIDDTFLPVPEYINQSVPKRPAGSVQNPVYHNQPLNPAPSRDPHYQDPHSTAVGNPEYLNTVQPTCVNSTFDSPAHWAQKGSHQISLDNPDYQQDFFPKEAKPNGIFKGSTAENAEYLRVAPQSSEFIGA

`C=CC(=O)Nc1cc(-c2c(-c3ccc(N4CCN(C)CC4)cc3)[nH]c3ncc(C(=O)OC(C)C)cc23)ccc1C` [Example 117, isopropyl 3-(3-acrylamido-4-methylphenyl)-2-(4-(4-methylpiperazin-1-yl)phenyl)-1H-pyrrolo[2,3-b]pyridine-5-carboxylate 2,2,2-trifluoroacetate]: the “Stability in presence of mouse liver microsomes without cofactor NADPH [% remaining after 50 min]” value in data set [1] is listed as 100 % remaining after 50 min.
Regarding `C=CC(=O)Nc1cc(-c2c(-c3cncnc3)[nH]c3nccc(Cl)c23)ccc1C` [Example 24, N-(5-(4-chloro-2-(pyrimidin-5-yl)-1H-pyrrolo[2,3-b]pyridin-3-yl)-2-methylphenyl)acrylamide], the IC50 (usually the concentration that gives 50% inhibition) was 100 to 500 nM at HER2 INS YVMA, at most 100 nM against EGFR T790ML858R, 100 to 500 nM at EGFR wt and 100 to 500 nM with H1975. The GI50 in data set [2] and in data set [3] was 500 to 1000 nM in each case. Besides, the “Stability in presence of mouse liver microsomes without cofactor NADPH [% remaining after 50 min]” value in data set [1] is above 99 % remaining after 50 min.
As for `C=CC(=O)Nc1cccc(-c2c(-c3ccc(C4CCN(C)CC4)cc3)[nH]c3ncccc23)c1` [Reference 1, reference compound], in data set [1], the “Stability in presence of mouse liver microsomes without cofactor NADPH [% remaining after 50 min]” value worked out at 33 % remaining after 50 min. Moreover, the major metabolite observed result in data set [1] (mouse liver microsomes with and without the cofactor NADPH) is listed as “hydrolysis of the acrylamide moiety”.
As to `C=CC(=O)Nc1cc(OC)cc(-c2c(-c3ccc(N4CCN(C)CC4)cc3)[nH]c3ncccc23)c1` [Reference 2, reference compound], the “Stability in presence of mouse liver microsomes without cofactor NADPH [% remaining after 50 min]” value in data set [1] is listed as 48 % remaining after 50 min.
Take `C=CC(=O)N1CCCc2ccc(-c3c(-c4cccc(OCCN5CCCC5)c4)[nH]c4nccc(Cl)c34)cc21` [Example 94, 1-(7-(4-chloro-2-(3-(2-(pyrrolidin-1-yl)ethoxy)phenyl)-1H-pyrrolo[2,3-b]pyridin-3-yl)-3,4-dihydroquinolin-1(2H)-yl)prop-2-en-1-one]: the IC50 against HER2 INS YVMA was at most 100 nM; against EGFR T790ML858R, at most 100 nM; at EGFR wt, at most 100 nM; in the data set with H1975, 100 to 500 nM; in the data set on A431 it was 1000 to 100000 nM. The GI50 in data set [2] and in data set [3] was 1000 to 10000 nM in each case.
`C=CC(=O)Nc1cc(-c2c(-c3ccnc(N4CCN(C)CC4)c3)[nH]c3ncc(C(=O)OC(C)C)cc23)ccc1C` [Example 156, isoproyl 3-(3-acrylamido-4-methylphenyl)-2-(2-(4-methylpiperazin-1-yl)pyridin-4-yl)-1H-pyrrolo[2,3-b]pyridine-5-carboxylate 2,2,2-trifluoroacetate]: the IC50 against HER2 INS YVMA is at most 100 nM; at EGFR T790ML858R it was at most 100 nM; at EGFR wt, at most 100 nM; with H1975, 500 to 1000 nM; with A431, 1000 to 100000 nM. The GI50 in data set [2] and in data set [3] was 100 to 500 nM each time.
As for `C=CC(=O)N1CCc2ccc(-c3c(-c4ccc(CN(C)C)cc4)[nH]c4nccc(OCC)c34)cc21` [Example 106, 1-(6-(2-(4-((dimethylamino)methyl)phenyl)-4-ethoxy-1H-pyrrolo[2,3-b]pyridin-3-yl)indolin-1-yl)prop-2-en-1-one], the IC50 is at most 100 nM against HER2 INS YVMA; at most 100 nM on EGFR T790ML858R; at most 100 nM against EGFR wt; at most 100 nM in the data set on H1975; 500 to 1000 nM in the data set with A431. The GI50 in data set [2] and in data set [3] was 100 to 500 nM throughout.
In the case of `C=CS(=O)(=O)Nc1cc(-c2c(-c3ccc(N4CCN(C)CC4)cc3)[nH]c3nccc(Cl)c23)ccc1C` [Example 145, N-(5-(4-chloro-2-(4-(4-methylpiperazin-1-yl)phenyl)-1H-pyrrolo[2,3-b]pyridin-3-yl)-2-methylphenyl)ethenesulfonamide 2,2,2-trifluoroacetate], the IC50 against HER2 INS YVMA is at most 100 nM; on EGFR T790ML858R, at most 100 nM; on EGFR wt, at most 100 nM; in the data set with H1975 it was 100 to 500 nM; with A431 it was 1000 to 100000 nM. The GI50 in data set [2] and in data set [3] was 500 to 1000 nM throughout.
